Test results: US10568879B2 (GALAPAGOS NV, priority 2015, dated 2020)
Each block holds one molecule with its values, some of them ahead of it.

Experiments:
human neutrophils = assay: Human neutrophil migration assay; type: cell-based; conditions: for IC50: Homo sapiens, Neutrophil, embelin at EC80 as chemotactic agent, 1 h at 37° C., read-out: Human neutrophil migration IC50
How it was run: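 Neutrophils freshly isolated from human buffy coats by dextran sedimentation and hypotonic lysis were preincubated with compound for 30 min at room temperature. Chemotaxis then ran in a Transwell system for 1 h at 37° C, 5% CO2. Migrated cells in the lower well were quantified by ATPlite luminescence.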

GPR84 [1] = biological target: T1, GPR84 (Homo sapiens, UniProt Q9NQS5); conditions: literature; cited from earlier work
T1 construct: expressed in transfected cells

GPR84 [2] = biological target: T1, GPR84; assay: GPR84 [35S]GTPγS binding assay; type: biochemical; conditions: 3,3′-diindolylmethane at EC80; membranes from stable cell line over expressing GPR84
How it was run: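 Antagonist-mode [35S]GTPγS binding on membranes from a GPR84-overexpressing stable line (GDP-preincubated), stimulated with 3,3′-diindolylmethane at EC80. Buffer 20 mM Tris pH 7.5, 5 mM MgCl2, 250 mM NaCl, saponin; 0.1 nM [35S]GTPγS, 90 min at room temperature, SPA bead read-out.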

[3] = Chemical stability in aqueous solutions with different pH; type: physicochemical; conditions: 2 μM; for % rem. (2 h) pH 1.2 / % rem. (24 h) pH 1.2: pH 1.2 hydrochloric acid buffer; for % rem. (2 h) pH 1.2 / % rem. (2 h) pH 5.0 / % rem. (2 h) pH 7.4 / % rem. (2 h) pH 9.0: 2 h incubation at 37° C.; for % rem. (24 h) pH 1.2 / % rem. (24 h) pH 5.0 / % rem. (24 h) pH 7.4 / % rem. (24 h) pH 9.0: 24 h incubation at 37° C.; for % rem. (2 h) pH 5.0 / % rem. (24 h) pH 5.0: pH 5.0 acetate buffer; for % rem. (2 h) pH 7.4 / % rem. (24 h) pH 7.4: pH 7.4 phosphate buffer; for % rem. (2 h) pH 9.0 / % rem. (24 h) pH 9.0: pH 9.0 Tris buffer
Procedure: This in vitro model is aimed at assessing the stability of a test compound in aqueous solutions with different pH. The decrease in parent compound is assessed by measuring the percentage parent remaining after 2 and 24 h incubation at 37° C.
A 2 mM DMSO stock is made for each test compound starting from dry matter. Then a 80 μM working solution of compound in DMSO is made by diluting the 2 mM DMSO.
The 80 μM working solution is diluted to a final concentration of 2 μM-2.5% DMSO in buffer with the desired pH (pH 1.2: hydrochloric acid buffer, pH 5.0: acetate buffer, pH 7.4: phosphate buffer, pH 9.0: Tris buffer) in 96-well plates with glass inserts (Cat no. 548-0201/548-0202, VWR-Thermo Scientific). Two replicates are run for each buffer solution and each time point.
One set of vials is incubated for 24 h at 200 rpm and another for 2 h at 200 rpm. To stop the reaction after the respective incubation times, 4 volumes of acetonitrile containing the internal standard (stop solution) are added to the reaction solution and the vials are vortexed briefly.
For the 0 h incubation, the stop solution with internal standard is first added to the buffer solution in glass vials and then the working solution of test compound (final concentration: 2 μM-2.5% DMSO) is added.
Propranolol is used as internal standard, but if the mass difference is too low with the test compound(s), another product is selected as internal standard. The concentration of the internal standard is chosen to obtain a peak area half of the average peak area of the test compounds and control at time point 0.
Analysis is performed on an LCMS-MS system (API2000 or API4000). The average of the peak areas of the two replicates from the parent compound at time 0 divided by the peak area of the internal standard is considered to be 100% remaining. The percentage remaining after 2 and 24 h of incubation is calculated for all other peaks and the percentage remaining after 2 and 24 h is reported.

[4] = tested on: RAW264.7 murine macrophage-like cells; conditions: RAW264.7 cells stimulated with LPS; cited from earlier work

T1 sequence (Q9NQS5 whole entry): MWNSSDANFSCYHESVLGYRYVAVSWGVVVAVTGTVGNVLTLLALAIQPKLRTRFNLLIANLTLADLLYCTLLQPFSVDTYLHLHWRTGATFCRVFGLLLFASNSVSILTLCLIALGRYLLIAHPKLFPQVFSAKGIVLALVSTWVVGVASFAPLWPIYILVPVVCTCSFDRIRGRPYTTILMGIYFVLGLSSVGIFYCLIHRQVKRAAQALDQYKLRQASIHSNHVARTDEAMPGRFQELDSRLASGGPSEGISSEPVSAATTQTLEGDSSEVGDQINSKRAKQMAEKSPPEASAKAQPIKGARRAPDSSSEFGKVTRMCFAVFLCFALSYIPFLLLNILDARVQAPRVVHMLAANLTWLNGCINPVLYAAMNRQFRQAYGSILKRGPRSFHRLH

Structure (SMILES): c1ccc2c(Cc3c[nH]c4ccccc34)c[nH]c2c1 [3,3′-diindolylmethane, reference compound]
neutrophil chemotaxis induced by GPR84 agonists (human neutrophils): induce neutrophil chemotaxis
GPR84 agonist activity (GPR84 [1]): some GPR84 agonist activity

Structure (SMILES): CCCCCCCCNc1cc(=O)[nH]c(=O)[nH]1 [6-n-octylaminouracil]
GPR84 agonist activity (GPR84 [1]): some GPR84 agonist activity

IC50 (human neutrophils): 100 to 500 nM
IC50 (GPR84 [2]): 100 to 500 nM
% rem. (2 h) pH 1.2 [3]: *** (>80%)
% rem. (24 h) pH 1.2 [3]: *** (>80%)
% rem. (2 h) pH 5.0 [3]: *** (>80%)
% rem. (24 h) pH 5.0 [3]: *** (>80%)
% rem. (2 h) pH 7.4 [3]: *** (>80%)
% rem. (24 h) pH 7.4 [3]: *** (>80%)
% rem. (2 h) pH 9.0 [3]: *** (>80%)
% rem. (24 h) pH 9.0 [3]: *** (>80%)
Structure (SMILES): COc1ccc2c(c1OC)CCn1c(OC[C@@H]3COCCO3)cc(=O)c(C)c1-2 [Compound 12, 4-[[(2S)-1,4-dioxan-2-yl]methoxy]-8,9-dimethoxy-1-methyl-6,7-dihydrobenzo[a]quinolizin-2-one]

IC50 (human neutrophils): 0.01 to 100 nM
IC50 (GPR84 [2]): 0.01 to 100 nM
% rem. (2 h) pH 1.2 [3]: *** (>80%)
% rem. (24 h) pH 1.2 [3]: *** (>80%)
% rem. (2 h) pH 5.0 [3]: *** (>80%)
% rem. (24 h) pH 5.0 [3]: *** (>80%)
% rem. (2 h) pH 7.4 [3]: *** (>80%)
% rem. (24 h) pH 7.4 [3]: *** (>80%)
% rem. (2 h) pH 9.0 [3]: *** (>80%)
% rem. (24 h) pH 9.0 [3]: *** (>80%)
Structure (SMILES): Cc1c2n(c(OC[C@@H]3COCCO3)cc1=O)CCc1cc(OCC(F)(F)F)ccc1-2 [Compound 18, 4-[[(2S)-1,4-dioxan-2-yl]methoxy]-1-methyl-9-(2,2,2-trifluoroethoxy)-6,7-dihydrobenzo[a]quinolizin-2-one]

Structure (SMILES): CCCCCCCCCC(=O)O [capric acid]
secretion of interleukin-12 p40 subunit (IL-12 p40) [4]: dose dependently increased

Structure (SMILES): CCCCCCCCCCCC(=O)O [lauric acid]
secretion of interleukin-12 p40 subunit (IL-12 p40) [4]: dose dependently increased

Structure (SMILES): CCCCCCCCCCC(=O)O [undecanoic acid]
secretion of interleukin-12 p40 subunit (IL-12 p40) [4]: dose dependently increased
